Tested on: long (CTG)20 slip-outs from (CAG)30●(CTG)50
Experiment: band-shift NA-DNA binding, long (CTG)20 slip-out
Set-up: species or system human
Conditions: NA 0.15-50 μM, 4% polyacrylamide gel
Text: FIG. 2 are the results of experiments showing that NA binds to long CAG slip-outs. […] The (CAG)n DNA sequence (left) can fold into an hairpin structure involving mismatched A-A pair flanking C-G base pairs (middle). NA molecules can intercalate into the DNA helix, with the 2-amino-1,8-naphthyridine moiety (in red) hydrogen bonding to guanine and 8-azaquinolone moiety (in blue) hydrogen bonding to adenine. […] Long slip-outs extruded as a single slip-out from a fully base-paired backbone of (CTG)n●(CAG)n, as described (Pearson et al., 2002, Nuc. Acids Res., 30:4534-47). DNAs were mixed with increasing concentrations of NA (0.15 μM, 0.75 μM, 7.5 μM and 50 μM) and resolved on 4% polyacrylamide gels. All lanes are from the same gel, and they were separated for clarity. NA-DNA complexes are shown by brackets, free DNA is indicated by arrowheads. […] The relative migration was measured for the linear and the three slip-outs substrates as the ratio of the migration distance of each NA-DNA complex to the migration distance of the free DNA. The migration distance was measured from the well to a consistent center point of each band. […]

naphthyridine-azaquinolone was tested, and the “NA binding (band-shift)” value was “not bound”.

— US11672786B2, “Methods of treating diseases associated with repeat instability” (The Hospital for Sick Children, priority 2016, dated 2023)
